Results reported in article PMC11371747, “The role of l-leucovorin uptake and metabolism in the modulation of 5-fluorouracil efficacy and antifolate toxicity” (Frontiers in Pharmacology, 2024).
Where two headings read alike, the source gives them in different places.

Assays:
CHO/C5-PCFT cells = assay: Growth inhibition, SRB assay, CHO/C5-PCFT (PCFT-transfected); type: cell-based, Chinese hamster
Method: (§1) Briefly, cells were seeded in triplicate in 96-well plates at their pre-established optimal density (CHO cells: 2,500 cells/100 μL; WiDr and HT29: 3,500 cells/100 μL; WiDr-LF/LV, LS174T: 5,000 cells/100 μL; CaCo2, CaCo2-LF/LV, H292, H28 and MSTO-211H: 6,000 cells/100 μL; H460, SW948 and SW1398: 7,000 cells/100 μL) and were allowed to attach for ∼ 24 h at 37°C in 5% CO2 and 100% humidified incubator. Thereafter, 100 μL of drug dilution without LV, or with 5 μM l-LV/5 μM d-LV/10 μM dL-LV (or any LV alone) were added. Cells were allowed to grow for 72 h at 37°C in 5% CO2 and 100% humidity. The t = 0 h control plate consisted of cells plated on the same day as the other cells, but after 24 h at 37°C in 5% CO2 and 100% humidity, only 100 μL medium was added and the cells were fixed immediately with 50% trichloroacetic acid (TCA) in milliQ water (25 μL per well) and put at 4°C for at least 1 h. Plates were washed five times with water and dried. Cells were stained with the SRB protein dye (0.4% (w/v) in 1% acetic acid. Excess dye was washed away four times with 1% acetic acid and plates were dried again. 200 μL of Tris (10 mM Tris (hydroxymethyl)-aminomethane in MQ) was added and optical density (OD) was read at 492 nm after mixing 2–3 min on a plate shaker.

MSTO-211H cells = assay: Growth inhibition, SRB assay, MSTO-211H (MPM); type: cell-based, human; conditions: for IC50: SRB, read-out: IC50, 72 h drug exposure
Method: as §1

H292 cells = assay: Growth inhibition, SRB assay, H292 (NSCLC); type: cell-based, human; conditions: for IC50: H292, SRB, read-out: IC50, 72 h drug exposure
Method: as §1

[1] = biological target: T1, thymidylate synthase (TS) (Homo sapiens, UniProt P04818); assay: TS in situ inhibition assay (TSIA) in colon cancer cells; type: cell-based; conditions: WiDr, 4 h, antifolate alone
T1 construct: The principle of this assay is the measurement of TS enzymatic activity in intact cells; endogenous in cells; host or cells: colon cancer cell lines (WiDr, WiDr-LF, SW1398, LS174T and others)
From the text: The principle of this assay is the measurement of TS enzymatic activity in intact cells. Intact cells will readily internalize radioactively labelled [5-^3H]-deoxycytidine, which will be rapidly converted by deoxycytidine kinase (dCK) to [5-^3H]-dCMP and subsequently deaminated to [5-^3H]-dUMP, which will then serve as a substrate in the TS catalysed reaction to dTMP and ^3H2O; the quantity of ^3H2O formed over time is a measure of intracellular TS activity. […] This is because dCK has a higher, cell cycle independent activity than thymidine kinase 1, which is a cell cycle dependent enzyme. For this purpose, cancer cells were cultured in six wells plates at 2.5 × 10^5 cells/2 mL/well for 24 h. Thereafter, cells were exposed to drugs with or without the LV formulations at the indicated concentrations for 4 h. 2 h before the end of the incubation period [5-^3H]-2′-deoxycytidine (final concentration 1 µM) was added to the cells. […] In most cell lines we quantified dCK activity and dCK mRNA levels.

H460 cells = assay: Growth inhibition, SRB assay, H460 (NSCLC); type: cell-based, human; conditions: for IC50: H460, SRB, read-out: IC50, 72 h drug exposure
Method: as §1

CHO/C5-hRFC cells = assay: Growth inhibition, SRB assay, CHO/C5-hRFC (human RFC transfected); type: cell-based, Chinese hamster; conditions: CHO/C5-hRFC
Method: as §1

AA8 cells = assay: Growth inhibition, SRB assay, AA8 (parental CHO); type: cell-based, Chinese hamster; conditions: for IC50: AA8 parental CHO
Method: as §1

H28 cells = assay: Growth inhibition, SRB assay, H28 (MPM); type: cell-based, human; conditions: for IC50: H28, SRB, read-out: IC50, 72 h drug exposure
Method: as §1

CHO/C5-MOCK cells = assay: Growth inhibition, SRB assay, CHO/C5-MOCK (empty vector); type: cell-based, Chinese hamster
Method: as §1

[2] = Cricetulus griseus, antifolate alone

T1 sequence (P04818 2-313 limits assumed): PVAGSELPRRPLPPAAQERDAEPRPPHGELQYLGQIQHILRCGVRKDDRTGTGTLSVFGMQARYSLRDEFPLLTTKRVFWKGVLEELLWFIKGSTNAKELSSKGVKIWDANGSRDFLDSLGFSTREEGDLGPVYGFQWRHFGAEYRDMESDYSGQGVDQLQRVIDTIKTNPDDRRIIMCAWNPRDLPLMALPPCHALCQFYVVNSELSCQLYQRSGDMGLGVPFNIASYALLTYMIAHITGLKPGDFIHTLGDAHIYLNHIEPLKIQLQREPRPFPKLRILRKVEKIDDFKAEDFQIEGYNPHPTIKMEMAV

IC50 (H292 cells; antifolate + 5 µM l-LV): 19100 nM
IC50 (H292 cells; Homo sapiens, NCI-H292, 72 h, antifolate alone): 3.7 ± 0.3 nM
IC50 [1]: 17.7 ± 4.7 nM
IC50 (H460 cells; antifolate + 5 µM l-LV): 1450 nM
IC50 (H460 cells; Homo sapiens, NCI-H460, 72 h, antifolate alone): 2.8 ± 0.1 nM
Structure (SMILES): C#CCC(Cc1cnc2nc(N)nc(N)c2n1)c1ccc(C(=O)N[C@@H](CCC(=O)O)C(=O)O)cc1 (stereo partly shown) [PLX, pralatrexate]
IC50 (CHO/C5-PCFT cells; [2]): 6800 nM
IC50 (CHO/C5-PCFT cells; antifolate + 5 µM l-LV): 87500 nM
IC50 (MSTO-211H cells; Homo sapiens, 72 h, antifolate alone): 2.4 ± 0.1 nM
IC50 (MSTO-211H cells; antifolate + 5 µM l-LV): 3340 nM
Relative protection by 5 µM l-LV (MSTO-211H cells; ratio IC50 antifolate + LV / IC50 antifolate): 1,601 ± 275
Relative protection by 5 µM l-LV (H292 cells; H292, ratio IC50 antifolate + LV / IC50 antifolate): 4,778 ± 1795
Relative protection by 5 µM l-LV (H460 cells; H460, ratio IC50 antifolate + LV / IC50 antifolate): 502 ± 21
IC50 (CHO/C5-hRFC cells; antifolate + 5 µM l-LV): 900 nM
IC50 (CHO/C5-hRFC cells; [2]): 3.8 nM
Protection by l-LV, increase of the IC50 value (AA8 cells; AA8 cells, 5 µM l-LV): 965 fold
IC50 (AA8 cells; antifolate + 5 µM l-LV): 3670 nM
IC50 (AA8 cells; [2]): 3.8 nM
IC50 (H28 cells; antifolate + 5 µM l-LV): 14600 nM
Relative protection by 5 µM l-LV (H28 cells; H28, ratio IC50 antifolate + LV / IC50 antifolate): 1834 ± 108
IC50 (H28 cells; Homo sapiens, NCI-H28, 72 h, antifolate alone): 11 ± 0.6 nM
IC50 (CHO/C5-MOCK cells; [2]): 13100 nM
IC50 (CHO/C5-MOCK cells; antifolate + 5 µM l-LV): > 100000 nM
